Target: T1, human Edg-1(S1P1) (Homo sapiens, UniProt P21453)
T1 construct: expressed in transfected cells; host or cells: HEK-293
Test: S1P1 Binding Test ([33P]-S1P, membrane fraction of HEK-293 cell line carrying the human Edg-1(S1P1) gene)
Settings: [33P]-S1P 0.1 nM; for inhibition at 10 µM: compound at 10 μM, 30° C., 1 hour, read-out: inhibition rate of Edg-1(S1P1) binding; for IC50: membrane binding test at various concentrations, read-out: IC50 value, Edg-1(S1P1) binding inhibition
Protocol: The membrane fraction of a HEK-293 cell line carrying the human Edg-1(S1P1) gene was used to study the compounds of the present invention for their inhibitory effect on Edg-1(S1P1) binding, as described in Science. […] To obtain the membrane fraction, treatment with solubilizing buffer (1 mM Tris/HCl, pH 7.2) for 10 minutes on ice was performed, followed by centrifugation at 1000×g for 5 minutes to remove an insoluble fraction and then at 40000×g for 30 minutes at 4° C. The resulting membrane fraction was dissolved in binding buffer (20 mM Tris-HCl, pH 7.4, 100 mM NaCl, 15 mM NaF, 2 mM deoxypyridoxine, 4 mg/mL fatty acid-free BSA), followed by addition of binding buffer containing [^33P]-S1P (ARC, final concentration: 0.1 nM) and DMSO solution of a test compound (final concentration of the compound: 10^−5 M, final concentration of DMSO: 0.1%). After stirring, the reaction solution was incubated at 30° C. for 1 hour. The membrane fraction was collected onto a unifilter-96 GF/C filter (Perkin Elmer) using a harvester and washed four times with binding buffer, followed by drying the filter. After addition of 25 μL Microscint 0 (Perkin Elmer), radioactivity was measured with a Top Count NXT (Packard) to calculate amount (A), i.e., the amount of [^33P]-S1P binding to the membrane fraction in the presence of the compound.
The same procedure was performed in the absence of any test compound to calculate amount (B), i.e., the amount of [^33P]-S1P binding. Moreover, the same procedure was also performed with HEK-293 cells carrying no Edg-1(S1P1) gene in the absence of any test compound to calculate amount (C), i.e., the amount of background [^33P]-S1P binding.
The inhibition rate of Edg-1(S1P1) binding was calculated for each compound by the following equation. Inhibition rate (%)=[1−(A−C)/(B−C)]×100
Moreover, the activity of each test compound was calculated as a value (IC50 value) showing 50% of the radioactivity obtained in the absence of any test compound. Namely, the above membrane system binding test was performed in the presence of a test compound at various concentrations to calculate an IC50 value according to the dose-dependent inhibition curve analyzed with data analysis software, Origin (Lightstone Corp., Japan).

T1 sequence (P21453 whole entry): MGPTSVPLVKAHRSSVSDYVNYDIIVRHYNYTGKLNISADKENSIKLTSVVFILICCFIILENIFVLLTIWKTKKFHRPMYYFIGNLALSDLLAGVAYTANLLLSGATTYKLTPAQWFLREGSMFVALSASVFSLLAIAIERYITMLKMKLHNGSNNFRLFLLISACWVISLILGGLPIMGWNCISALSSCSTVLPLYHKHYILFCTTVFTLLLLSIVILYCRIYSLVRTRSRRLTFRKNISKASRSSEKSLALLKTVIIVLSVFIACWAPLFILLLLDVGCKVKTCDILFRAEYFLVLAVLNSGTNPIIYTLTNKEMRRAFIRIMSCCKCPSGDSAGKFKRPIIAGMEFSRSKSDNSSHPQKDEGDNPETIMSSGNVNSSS

| SMILES | inhibition at 10 µM [%] | IC50 [nM] |
| --- | --- | --- |
| CCc1c(C(C)NS(=O)(=O)c2ccc3c(c2)OCO3)ccnc1Oc1cccc(N2CCOCC2)c1 (stereo not drawn) [Compound 52] | ≥ 3 |  |
| CCc1c(C(C)NS(=O)(=O)/C=C/c2ccccc2)ccnc1Oc1cccc(N2CCOCC2)c1 (stereo not drawn) [Compound 53] | ≥ 3 |  |
| CCc1c(C(C)NS(=O)(=O)c2ccc3c(c2)CCO3)ccnc1Oc1cccc(N2CCOCC2)c1 (stereo not drawn) [Compound 54] | ≥ 3 |  |
| CCc1c(C(C)NS(=O)(=O)c2ccc3c(c2)N=S=N3)ccnc1Oc1cccc(N2CCOCC2)c1 (stereo not drawn) [Compound 55] | ≥ 3 | 126 |
| CCc1c(C(C)NS(=O)(=O)c2ccc(Cl)cc2Cl)ccnc1Oc1cccc(N2CCOCC2)c1 (stereo not drawn) [Compound 56] | ≥ 3 |  |
| CCc1c(C(C)NS(=O)(=O)c2ccc3c(Cl)ccc(Cl)c3c2)ccnc1Oc1cccc(N2CCOCC2)c1 (stereo not drawn) [Compound 57] | ≥ 3 | ≤ 200 |
| CCc1c(C(C)NS(=O)(=O)c2ccc3c(Cl)cccc3c2)ccnc1Sc1ccc(C)cc1 (stereo not drawn) [Compound 58, 5-Chloronaphthalene-2-sulfonic acid [1-(3-ethyl-2-p-toluylsulfanyl-pyridin-4-yl)-ethyl]-amide] | ≥ 3 |  |
| CCc1c(C(C)NS(=O)(=O)c2ccc3c(Cl)cccc3c2)ccnc1S(=O)(=O)c1ccc(C)cc1 (stereo not drawn) [Compound 59, 5-Chloronaphthalene-2-sulfonic acid {1-[3-ethyl-2-(toluene-4-sulfonyl)-pyridin-4-yl]-ethyl}-amide] | ≥ 3 |  |
| CCc1c(C(C)N(C)S(=O)(=O)c2ccc3c(Cl)cccc3c2)ccnc1Oc1cccc(N2CCOCC2)c1 (stereo not drawn) [Compound 60, 5-Chloronaphthalene-2-sulfonic acid {1-[3-ethyl-2-(3-morpholin-4-yl-phenoxy)-pyridin-4-yl]-ethyl}-methyl-amide] | ≥ 3 |  |
| CCc1c(C(C)NS(=O)(=O)c2ccc3c(Cl)cccc3c2)ccnc1Sc1cccc(N2CCN(C)CC2)c1 (stereo not drawn) [Compound 62] | ≥ 3 |  |

— patent US8048898B2, “Inhibitor of binding of S1P1” (Taisho Pharmaceutical Co., Ltd, priority 2007, dated 2011)
